Measured values as given in patent US20250082674A1, “METHODS OF TREATING COPPER METABOLISM-ASSOCIATED DISEASES OR DISORDERS” (priority 2021, published 2025).
Where two headings read alike, the source gives them in different places.

Columns and labels:
copper = conditions: Study 301, FIG. 23, versus SoC chelator therapy
From the text: Biomarkers and Biobank Samples: Blood samples were collected to measure plasma Cp and CpC. Urine samples were collected for analysis of urine copper and molybdenum. Additional biomarker or biobank samples were collected for the analysis of molybdenum and/or copper species associated with treatment.

[1] = test system: patients with Wilson disease (WD); assay: Study 301: Unified Wilson Disease Rating Scale (UWDRS Parts II, III); type: in vivo, human
Description: The UWDRS scoring system was developed specifically for the motor and movement disorders associated with chronic copper neurotoxicity in WD. Some individual items/subscales of the UWDRS Part III (arising from a chair, gait, handwriting, and speech) in addition to the UWDRS Parts I, II, and III overall, were assessed to further define the range of burdensome signs and symptoms of WD, so as to further understand the assessment of treatment effects on patients with WD. The UWDRS scores for consciousness (Part I) and abnormal neurologic examination findings (Part III) will be determined by a trained neurologist rater who is blinded to study treatment randomization. These scores were used to provide a rigorous dataset for evaluating changes from baseline.
Unified Wilson Disease Rating Scale (Parts I, II, and III): The UWDRS is a clinical rating scale designed to evaluate the neurological manifestations of WD that generally can be divided into 3 movement disorder syndromes: dystonic, ataxic, and Parkinsonian syndrome. The UWDRS comprises 3 parts: UWDRS Part I (level of consciousness, item 1), UWDRS Part II (a patient-reported review of daily activity items [disability], items 2 to 11), and UWDRS Part III (a detailed neurological examination, items 12 to 34).
The UWDRS Part I and Part III were assessed by a neurologist who is blinded to the treatment randomization, while UWDRS Part II may be reported to a non-blinded member of the study team by the patient, family member, or caregiver. The UWDRS has not been formally evaluated in adolescents. However, the components of Part I (level of consciousness), Part II (patient or caregiver-reported disability) and Part III (neurologic examination findings) were not fundamentally different between adults and adolescents. Patients aged 12 years and older were expected to be able to comply with UWDRS assessments.
There were trends toward stability/improvement for both treatment groups. […] As approximately 50% of patients had baseline UWDRS scores of 0, and those patients that did have scores greater than zero were relatively low in the respective UWDRS Part II (score range: 0-40) and UWDRS Part III (score range: 0-175) scale range, there was little room for improvement.

[2] = test system: ^64Cu hepatic uptake, biliary copper excretion; conditions: 4 WD patients, FIG. 30
Description: 15 minutes after intravenous administration of ^64Cu, a dynamic PET-MR scan was performed, followed by additional scans at 1, 2, 6, 20, 48, 54, and 68 hours. Venous blood samples were collected for quantitation of radioactivity at multiple time points.
The post-treatment ^64Cu PET-MR study was initiated on the 7th day, with serial PET-MR imaging conducted 1, 2, 6, 20, 48, 54, and 68 hours after intravenous administration of ^64Cu.
The study also assessed the kinetics of ^64Cu in the blood and its distribution among organs of interest. The SUV allows for semiquantitative assessment of copper in a desired volume of interest by measuring the ratio of observed copper activity to the total dose administered.

[3] = human, in vivo
[4] = Study 301, patients symptomatic at baseline, Cohort 1
[5] = Study 301, patients symptomatic at baseline, Cohort 2
[6] = Study 301, patients symptomatic at baseline, Overall

From the text for albumin levels: Across the 301, 201, and 205 studies, 102 participants had cirrhosis at baseline.

Substance: Bis-choline tetrathiomolybdate [BC-TTM]
- 24-hour urinary copper (copper): lower
- UWDRS Part II (0-40), Change from Baseline at 48 weeks, Mean ([1]; Study 301, Full Analysis Set): −0.6
- UWDRS Part II (0-40), Difference at 48 weeks, LSM (SE), BC-TTM vs SoC ([1]; Study 301, Full Analysis Set): 0.4 (0.51)
- UWDRS Part III (0-175), Change from Baseline at 48 weeks, Mean ([1]; Study 301, Full Analysis Set): −2.20
- UWDRS Part III (0-175), Difference at 48 weeks, LSM (SE), BC-TTM vs SoC ([1]; Study 301, Full Analysis Set): −0.09 (1.322)
- UWDRS Part III functional subscale (0-10), Change from Baseline at 48 weeks, Mean ([1]; Study 301, Full Analysis Set): −0.147
- UWDRS Part III functional subscale (0-10), Difference at 48 weeks, LSM (SE), BC-TTM vs SoC ([1]; Study 301, Full Analysis Set): −0.067 (0.1344)
- UWDRS Part III-arising from chair (0-4), Change from Baseline at 48 weeks, Mean ([1]; Study 301, Full Analysis Set): 0.0
- UWDRS Part III-arising from chair (0-4), Difference at 48 weeks, LSM (SE), BC-TTM vs SoC ([1]; Study 301, Full Analysis Set): 0.0 (0.06)
- UWDRS Part III-gait (0-10), Change from Baseline at 48 weeks, Mean ([1]; Study 301, Full Analysis Set): −0.06
- UWDRS Part III-gait (0-10), Difference at 48 weeks, LSM (SE), BC-TTM vs SoC ([1]; Study 301, Full Analysis Set): −0.15 (0.192)
- UWDRS Part III-handwriting (0-4), Change from Baseline at 48 weeks, Mean ([1]; Study 301, Full Analysis Set): −0.1
- UWDRS Part III-handwriting (0-4), Difference at 48 weeks, LSM (SE), BC-TTM vs SoC ([1]; Study 301, Full Analysis Set): −0.1 (0.09)
- UWDRS Part III-speech (0-4), Change from Baseline at 48 weeks, Mean ([1]; Study 301, Full Analysis Set): −0.1
- UWDRS Part III-speech (0-4), Difference at 48 weeks, LSM (SE), BC-TTM vs SoC ([1]; Study 301, Full Analysis Set): 0.0 (0.07)
- key secondary efficacy endpoints, BC-TTM versus SoC ([1]; Study 301, after adjusting for multiplicity (hierarchical testing)): none of the key secondary efficacy endpoints were statistically significantly different
- UWDRS Part III, Week 48 Change from Baseline, LSM Diff, BC-TTM vs SoC [1, 4]: −0.79
- UWDRS Part III, Week 48 Change from Baseline, Mean [1, 4]: −2.86
- UWDRS Part III, Week 48 Change from Baseline, Median [1, 4]: −2.00
- UWDRS Part III, Week 48 Change from Baseline, LSM ([1]; Study 301, patients symptomatic at baseline, Cohort 1, MMRM): −2.68
- UWDRS Part III, Week 48 Change from Baseline, LSM Diff (SE), BC-TTM vs SoC [1, 5]: 0.05 (5.041)
- UWDRS Part III, Week 48 Change from Baseline, Mean [1, 5]: −3.10
- UWDRS Part III, Week 48 Change from Baseline, Median [1, 5]: −3.00
- UWDRS Part III, Week 48 Change from Baseline, LSM ([1]; Study 301, patients symptomatic at baseline, Cohort 2, MMRM): 1.43
- UWDRS Part III, Week 48 Change from Baseline, LSM Diff, BC-TTM vs SoC [1, 6]: −0.33
- UWDRS Part III, Week 48 Change from Baseline, Mean [1, 6]: −2.91
- UWDRS Part III, Week 48 Change from Baseline, Median [1, 6]: −2.00
- UWDRS Part III, Week 48 Change from Baseline, LSM ([1]; Study 301, patients symptomatic at baseline, Overall, MMRM): −1.54
- mean SUV for the other organs after treatment [2]: did not change
- covariate effect of age on plasma total molybdenum clearance [3]: age is not a significant covariate
- Albumin Level (albumin levels; Study 201 (normal 33-49), Participant 9, Baseline): 29 mg/dL
- Albumin Level (albumin levels; Study 201 (normal 33-49), Participant 9, Week 48): 45 mg/dL
- Albumin Level (albumin levels; Study 201 (normal 33-49), Participant 9, Week 150, early termination): 46 mg/dL
- Albumin Level (albumin levels; Study 201 (normal 33-49), Participant 10, Baseline): 29 mg/dL
- Albumin Level (albumin levels; Study 201 (normal 33-49), Participant 10, Week 48): 40 mg/dL
- Albumin Level (albumin levels; Study 201 (normal 33-49), Participant 10, Week 98): 40 mg/dL
- Albumin Level (albumin levels; Study 201 (normal 33-49), Participant 10, Week 163, early termination): 39 mg/dL
- Albumin Level (albumin levels; Study 201 (normal 33-49), Participant 11, Baseline): 31 mg/dL
- Albumin Level (albumin levels; Study 201 (normal 33-49), Participant 11, Week 48): 44 mg/dL
- Albumin Level (albumin levels; Study 201 (normal 33-49), Participant 11, Week 98): 46 mg/dL
- Albumin Level (albumin levels; Study 201 (normal 33-49), Participant 11, Week 150): 44 mg/dL
- Albumin Level (albumin levels; Study 205 (normal 35-55), Participant 12, Baseline): 36 mg/dL
- Albumin Level (albumin levels; Study 205 (normal 35-55), Participant 12, Day 43): 33 mg/dL
- Albumin Level (albumin levels; Study 205 (normal 35-55), Participant 12, Day 57): 30 mg/dL
- Albumin Level (albumin levels; Study 205 (normal 35-55), Participant 12, Day 169): 34 mg/dL
- Albumin Level (albumin levels; Study 205 (normal 35-55), Participant 12, Day 253): 34 mg/dL
- Albumin Level (albumin levels; Study 205 (normal 35-55), Participant 12, Day 337, early termination): 37 mg/dL
- Albumin Level (albumin levels; Study 205 (normal 35-55), Participant 13, Baseline): 45 mg/dL
- Albumin Level (albumin levels; Study 205 (normal 35-55), Participant 13, Day 345): 27 mg/dL
- Albumin Level (albumin levels; Study 301 (normal 35-55), Participant 1, Baseline): 33 mg/dL
- Albumin Level (albumin levels; Study 301 (normal 35-55), Participant 1, Week 48): 47 mg/dL
- Albumin Level (albumin levels; Study 301 (normal 35-55), Participant 1, Week 96): 48 mg/dL
- Albumin Level (albumin levels; Study 301 (normal 35-55), Participant 2, Baseline): 37 mg/dL
- Albumin Level (albumin levels; Study 301 (normal 35-55), Participant 2, Week 48): 34 mg/dL
- Albumin Level (albumin levels; Study 301 (normal 35-55), Participant 2, Week 60, early termination): 25 mg/dL
- Albumin Level (albumin levels; Study 301 (normal 35-55), Participant 3, Baseline): 34 mg/dL
- Albumin Level (albumin levels; Study 301 (normal 35-55), Participant 3, Week 48): 36 mg/dL
- Albumin Level (albumin levels; Study 301 (normal 35-55), Participant 3, Week 60): 34 mg/dL
- Albumin Level (albumin levels; Study 301 (normal 35-55), Participant 4, Baseline): 28 mg/dL
- Albumin Level (albumin levels; Study 301 (normal 35-55), Participant 4, Week 48): 31 mg/dL
- Albumin Level (albumin levels; Study 301 (normal 35-55), Participant 5, Baseline): 32 mg/dL
- Albumin Level (albumin levels; Study 301 (normal 35-55), Participant 5, Week 48): 37 mg/dL
- Albumin Level (albumin levels; Study 301 (normal 35-55), Participant 5, Week 96): 37 mg/dL
- Albumin Level (albumin levels; Study 301 (normal 35-55), Participant 6, Baseline): 29 mg/dL
- Albumin Level (albumin levels; Study 301 (normal 35-55), Participant 6, Week 24): 35 mg/dL
- Albumin Level (albumin levels; Study 301 (normal 35-55), Participant 6, Week 48): 42 mg/dL
- Albumin Level (albumin levels; Study 301 (normal 35-55), Participant 6, Week 96): 40 mg/dL
- Albumin Level (albumin levels; Study 301 (normal 35-55), Participant 7, Baseline (Week 48 Extension Day 1)): 42 mg/dL
- Albumin Level (albumin levels; Study 301 (normal 35-55), Participant 7, Week 8): 37 mg/dL
- Albumin Level (albumin levels; Study 301 (normal 35-55), Participant 7, Week 24): 36 mg/dL
- Albumin Level (albumin levels; Study 301 (normal 35-55), Participant 7, Week 30): 35 mg/dL
- Albumin Level (albumin levels; Study 301 (normal 35-55), Participant 7, Week 48): 35 mg/dL
- Albumin Level (albumin levels; Study 301 (normal 35-55), Participant 7, Week 144): 37 mg/dL
- Albumin Level (albumin levels; Study 301 (normal 35-55), Participant 8, Baseline (Week 48 Extension Day 1)): 42 mg/dL
- Albumin Level (albumin levels; Study 301 (normal 35-55), Participant 8, Week 120, early termination): 32 mg/dL
- participants with cirrhosis at baseline who experienced changes in albumin levels (albumin levels; of 102, Studies 301, 201, 205): 13 participants
- participants with cirrhosis at baseline whose albumin levels remained stable (albumin levels; of 102, Studies 301, 201, 205): 89 participants
- participants with cirrhosis at baseline who maintained liver function (albumin levels) (albumin levels; of 102 participants): 87%
- cirrhotic participants whose albumin levels returned to the normal range (albumin levels; of the 13 with changes in liver function): 7 participants
